Values belong to the molecule of their own block, whether it stands above or below them.
What was measured:
[1] = molecular target: T1, mitochondrial complex III (Homo sapiens, UniProt P00156+P47985); test: Seahorse complex III-driven OCR in permeabilized MiaPaCa-2 cells; type: cell-based; parameters: carried out on acutely permeabilized cells in the presence of different mitochondrial substrates; endogenous in cells; host or cells: MiaPaCa-2 (A7); conditions: for Inhibition of complex III-induced oxygen consumption: MiaPaCa-2 cells, 24 h; for IC50: MiaPaCa-2 cells treated 24 h, duroquinol, read-out: Complex III IC50 (AA-inhibitable OCR)
Experimental: The mitochondrial complex activities were assessed by measuring the oxygen consumption rate (OCR) using the Seahorse technique[6],[11]–[14]. MiaPaCa-2 cells were treated separately with Mito-ATO analogs at different concentrations for 24 h and OCR was measured.
Figure 2 Effects of Mito-ATO analogs on the oxygen consumption induced by mitochondrial complexes I and III. […] MiaPaCa-2 cells were treated with Mito-ATO for 24 h. Relative complex I (1.5 mM malate, 10 mM pyruvate, 10 mM ADP)-driven OCR (left) and relative complex III (0.5 mM duroquinol, 10 mM ADP)-driven OCR (right) were monitored by XF-96 analyser. Either Rot (complex I inhibitor) or antimycin A (AA, complex III inhibitor) was acutely added and OCR assayed immediately. […] Dashed lines represent the fitting curves used for determination of the IC50 values. (n.a., not applicable).
(§1) Mitochondrial bioenergetic function was measured in real time using the Seahorse XF 96 Extracellular Flux Analyzer (Agilent, North Billerica, MA)[11]–[13],[22]. The OCR-based assessment of mitochondrial complex activities was carried out on acutely permeabilized cells in the presence of different mitochondrial substrates, i.e., pyruvate/malate, for complex I and duroquinol for complex III[11],[14],[31],[32]. Rot, malonate, and antimycin A (Sigma-Aldrich, St. Louis, MO) were used as specific inhibitors of mitochondrial complexes I, II, and III, respectively. Briefly, cells that were intact after treatments were immediately permeabilized using the Seahorse XF Plasma Membrane Permeabilizer (Agilent). The mitochondrial complex I-driven OCR was assayed in mannitol and sucrose buffer[31] containing 10 mM pyruvate and 1.5 mM malate (substrates for complex I) and 10 mM malonate (which inhibits complex II activities). The mitochondrial complex III-driven OCR was assayed in mannitol and sucrose buffer containing 0.5 mM duroquinol (substrate for complex III) and 1 µM Rot and 10 mM malonate (which inhibit both complex I and II activities). The mitochondrial complex-dependent oxygen consumption (calculated as Rot- or antimycin A-inhibitable OCR equals basal OCR less OCR after Rot or antimycin A injection) was plotted against concentrations to determine the IC50 values.

[2] = tested on: MiaPaCa-2 cells; test: IncuCyte cell proliferation (cell confluence), MiaPaCa-2; type: cell-based, human; conditions: for IC50: Homo sapiens, MIA PaCa-2, MiaPaCa-2 cells, confluence as control groups reach 98% confluency, read-out: IC50, inhibition of cell proliferation (cell confluence); for Antiproliferative effect compared with corresponding Mito-ATO analogs: MiaPaCa-2 cells, Figure S3
Experimental: (§2) The following cell lines were obtained from the American Type Culture Collection (Manassas, VA), where they were regularly authenticated: MiaPaCa-2 (ATCC#CRL-1420, human pancreatic cancer), MDA-MB-231 (ATCC#HTB-26, human breast cancer), A549 (ATCC#CCL-185, human lung cancer), LLC (ATCC#CLR-1642, mouse lung cancer). LKR13 mouse lung cancer cells were a gift from Dr. Jonathan M. Kurie (MD Anderson Cancer Center, Houston, TX)[30]. All cell lines were grown at 37 °C in 5% CO2. MiaPaCa-2 and MDA-MB-231 cells were maintained in DMEM medium (Thermo Fisher Scientific, #11965) supplemented with 10% foetal bovine serum. A549, LLC, and LKR13 cells were maintained in RPMI 1640 medium (Thermo Fisher Scientific, #11875), supplemented with 10% foetal bovine serum. All cells were stored in liquid nitrogen and used within 20 passages after thawing.
The IncuCyte Live-Cell Imaging system (IncuCyte Essen Bioscience Inc., Ann Arbor, MI) was used to monitor cell proliferation[11]–[13]. As shown in previous publications[11],[12], this imaging system is probe-free and noninvasive, and enables continuous monitoring of cell confluence over several days. The increase in the percentage of cell confluence was used as a surrogate marker of cell proliferation. In a 96-well plate, cells were plated at 1,000 cells per well in triplicates and left to adhere overnight.

[3] = tested on: LKR13 mouse lung cancer cells; test: IncuCyte cell proliferation (cell confluence), LKR13; type: cell-based; conditions: read-out: IC50, inhibition of cell proliferation (cell confluence)
Excerpt: (§3) Previous reports provide evidence for enhanced uptake of several mitochondria-targeted cationic agents into cancer cells as compared with non-transformed control cells[11]–[14].
as §2
(§4) The IncuCyte Live-Cell Imaging system (IncuCyte Essen Bioscience Inc., Ann Arbor, MI) was used to monitor cell proliferation[11]–[13]. As shown in previous publications[11],[12], this imaging system is probe-free and noninvasive, and enables continuous monitoring of cell confluence over several days. […]

[4] = tested on: LLC mouse lung cancer cells; test: IncuCyte cell proliferation (cell confluence), LLC; type: cell-based; conditions: Lewis lung carcinoma, read-out: IC50, inhibition of cell proliferation (cell confluence)
Excerpt: as §3, §2, §4

[5] = molecular target: T2, mitochondrial complex III (Mus musculus, UniProt P00158+Q9CR68); test: Seahorse complex III-driven OCR in LLC cells; type: cell-based
T2 construct: carried out on acutely permeabilized cells in the presence of different mitochondrial substrates; endogenous in cells; host or cells: LLC (A11); LKR13 (A13)
Experimental: (§5) Dashed lines represent the fitting curves used for determination of the IC50 values.
as §1, with “The mitochondrial complex III-driven OCR was assayed in mannitol and sucrose buffer containing 0.5 mM duroquinol (substrate for complex III) and 1 µM Rot and 10 mM malonate (which inhibit both complex I and II activities).” left out

[6] = tested on: A549 human lung cancer cells; test: IncuCyte cell proliferation (cell confluence), A549; type: cell-based; conditions: read-out: IC50, inhibition of cell proliferation (cell confluence)
Excerpt: as §3, §2, §4

[7] = molecular target: T2, mitochondrial complex III; test: Seahorse complex III-driven OCR in LKR13 cells; type: cell-based
Experimental: as §5
as §1, with “The mitochondrial complex III-driven OCR was assayed in mannitol and sucrose buffer containing 0.5 mM duroquinol (substrate for complex III) and 1 µM Rot and 10 mM malonate (which inhibit both complex I and II activities).” left out

[8] = molecular target: T1, mitochondrial complex III; test: Seahorse complex III-driven OCR in A549 cells; type: cell-based; parameters: carried out on acutely permeabilized cells in the presence of different mitochondrial substrates; endogenous in cells; host or cells: A549 (A9)
Experimental: as §5
as §1, with “The mitochondrial complex III-driven OCR was assayed in mannitol and sucrose buffer containing 0.5 mM duroquinol (substrate for complex III) and 1 µM Rot and 10 mM malonate (which inhibit both complex I and II activities).” left out

[9] = tested on: MDA-MB-231 human breast cancer cells; test: IncuCyte cell proliferation (cell confluence), MDA-MB-231; type: cell-based; conditions: MDA-MB-231 cells, read-out: IC50, inhibition of cell proliferation (cell confluence)
Excerpt: as §3, §2, §4

[10] = tested on: CD4+ T cells from SMARTA triple reporter mice; test: In vitro differentiation of CD4+ T regulatory cells, flow cytometry; type: cell-based, mouse; conditions: six days of culture; for Foxp3+ Treg differentiation and/or survival: varying concentrations; for Teff cell IFNγ production: dose-dependent; for Treg differentiation and/or survival: up to 60 µM
Excerpt: Recent reports indicate that selective targeting and inhibiting of mitochondrial complex III mitigate and reverse immunosuppression by Treg cells, promoting the function of Teff cells[15],[17]. […] After six days, cells were stained to assess viability, phenotype, and function using flow cytometry.
Figure 5 In vitro differentiation of CD4^+ T regulatory cells under varying concentrations of Mito-ATOs and controls. After six days of culture, cells were stained for flow cytometry analysis. (left) Live/dead staining to assess the percentage of live CD4 + T cells within the lymphocyte gate. (middle) Teff cell function is shown as the frequency of IFNγ-YFP positive cells within the live CD4^+ T cells. (right) The percentage of Treg cells is shown as the frequency of FoxP3^+CD25^+ cells within the live CD4^+ T cells. […] I assigned them to Mito10-ATO from the label under the bar charts above. / Panel A contour plots: no measure is printed with the gate percentages. Only the axes CD25 and FoxP3 are printed.
To differentiate CD4^+ T cells into a T regulatory cell phenotype, splenocytes from SMARTA triple-reporter mice were processed and the red blood cell lysed using an ACK (ammonium-chloride-potassium) lysis buffer. The cells were then activated with 1 μg/mL GP61–80 peptide (GenScript, Piscataway, NJ) and 5 ng/mL TGF-β1 (Shenandoah Biotechnology, Inc., Warwick, PA). […] Cells were cultured for six days and split once cells reached confluency; cells were replenished with IL-2 and compound accordingly. After six days in culture, cells were stained to assess the viability and phenotypic analysis via flow cytometry. LIVE/DEAD fixable violet or aqua dead cell stain (Invitrogen, Carlsbad, CA) was used to assess cell viability. The following antibodies were used for flow cytometry staining: PercP anti-mouse CD4 (clone: GK1.5; BioLegend, San Diego, CA), APC/Cy7 anti-mouse CD25 (clone: PC61; BioLegend), and PE anti-mouse FOXP3 (clone: FJK-16S; eBioscience, San Diego, CA). Flow cytometry data were acquired using a BD LSRII (BD Biosciences, CA) flow cytometer and analysed using FlowJo (Treestar, Inc., Ashland, OR).

Inhibition of complex III-induced oxygen consumption [1]: did not inhibit
IC50 [2]: 3 µM
SMILES: O=C1C(OCCCCCCCCCCCCCCCC[P+](c2ccccc2)(c2ccccc2)c2ccccc2)=C([C@H]2CC[C@H](c3ccc(Cl)cc3)CC2)C(=O)c2ccccc21 [Mito16-ATO]

IC50 [3]: 0.5 µM
IC50 [4]: 0.46 µM
IC50 [5]: 0.5 µM
IC50 [6]: 0.14 µM
IC50 [7]: 2.1 µM
IC50 [8]: 1 µM
IC50 [1]: 0.78 µM
IC50 [9]: 0.23 µM
IC50 [2]: 0.22 µM
SMILES: O=C1C(OCCCCCCCCCC[P+](c2ccccc2)(c2ccccc2)c2ccccc2)=C([C@H]2CC[C@H](c3ccc(Cl)cc3)CC2)C(=O)c2ccccc21 [Mito10-ATO]
Foxp3+ Treg differentiation and/or survival [10]: inhibited
Teff cell IFNγ production [10]: promoted

SMILES: CCCCOC1=C([C@H]2CC[C@H](c3ccc(Cl)cc3)CC2)C(=O)c2ccccc2C1=O [Butyl-ATO]
Treg differentiation and/or survival [10]: did not inhibit
Antiproliferative effect compared with corresponding Mito-ATO analogs [2]: much less effective

IC50 [1]: 0.58 µM
IC50 [2]: 0.18 µM
SMILES: O=C1C(OCCCC[P+](c2ccccc2)(c2ccccc2)c2ccccc2)=C([C@H]2CC[C@H](c3ccc(Cl)cc3)CC2)C(=O)c2ccccc21 [Mito4-ATO]
Foxp3+ Treg differentiation and/or survival [10]: inhibited
Teff cell IFNγ production [10]: promoted

IC50 [3]: 10 µM
IC50 [4]: 13 µM
IC50 [6]: 16 µM
IC50 [9]: 18 µM
IC50 [2]: 18 µM
SMILES: O=C1C(O)=C([C@H]2CC[C@H](c3ccc(Cl)cc3)CC2)C(=O)c2ccccc21 [ATO, Atovaquone]
Treg differentiation and/or survival [10]: did not inhibit

SMILES: O=C1C(OCCCCCCCCCCCC[P+](c2ccccc2)(c2ccccc2)c2ccccc2)=C([C@H]2CC[C@H](c3ccc(Cl)cc3)CC2)C(=O)c2ccccc21 [Mito12-ATO]
Inhibition of complex III-induced oxygen consumption [1]: did not inhibit
Foxp3+ Treg differentiation and/or survival [10]: did not appreciably inhibit

SMILES: CCCCCCCCCCOC1=C([C@H]2CC[C@H](c3ccc(Cl)cc3)CC2)C(=O)c2ccccc2C1=O [Decyl-ATO]
Treg differentiation and/or survival [10]: did not inhibit
Antiproliferative effect compared with corresponding Mito-ATO analogs [2]: much less effective

Reference: paper PMC7578061, “Potent inhibition of tumour cell proliferation and immunoregulatory function by mitochondria-targeted atovaquone” (Scientific Reports, 2020)
